In patent US8865683B2, “Active compound combinations having insecticidal properties” (priority 2003, dated 2014):

System: green peach aphid (Myzus persicae)
Experiment: Myzus persicae test (cabbage leaf dip)
Type: in vivo
Details: cabbage leaves (Brassica oleracea) dipped
Source text: The expected action for a given combination of two active compounds can be calculated according to S. R. Colby, Weed, 15 (1967), 20-22): […]
If • X is the kill rate, expressed as a percentage of the untreated control, when employing active compound A at an application rate of m g/ha or in a concentration of m ppm, • Y is the kill rate, expressed as a percentage of the untreated control, when employing active compound B at an application rate of n g/ha or in a concentration of n ppm and • E is the kill rate, expressed as a percentage of the untreated control, when employing active compounds A and B at application rates of m and n g/ha or in a concentration of m and n ppm, then
If the actual insecticidal kill rate exceeds the calculated value, the action of the combination is superadditive, i.e. a synergistic effect is present. In this case, the actually observed kill rate must exceed the value calculated using the above formula for the expected kill rate (E).
After the desired period of time, the kill in % is determined. 100% means that all animals have been killed; 0% means that none of the animals have been killed. […]
After the desired period of time, the kill in % is determined. […] The determined kill ratios are entered into Colby's formula (see page 42).

| Structure (SMILES) | Kill rate in % after 1d, found (0.8 ppm active compound) [%] | Kill rate in % after 1d, found (4 ppm active compound) [%] |
| --- | --- | --- |
| CCOP(=S)(OCC)Oc1nc(Cl)c(Cl)cc1Cl [(2-2) chlorpyrifos, chlorpyrifos] | 65 |  |
| Cc1cc(Cl)cc(C(=O)NC(C)C)c1NC(=O)c1cc(C(F)(F)F)nn1-c1ncccc1Cl [(I-1-9)] |  | 0 |
